Data published in paper PMC8394532, “Structural and Functional Insights into the Biofilm-Associated BceF Tyrosine Kinase Domain from Burkholderia cepacia” (Biomolecules, 2021).

Key:
[1] = target: T1, BceF kinase domain (Burkholderia cepacia, UniProt Q0GYW2); experiment: X-ray crystal structure, […] Å; type: binding; details: endogenous ADP co-purified from E. coli; active site; crystals pH 5.5
T1 construct: cytoplasmic kinase domain, residues 471-741; synthetic codon-optimised gene, N-terminal His6-TEV; E. coli BL21(DE3); partly phosphorylated C-terminal tyrosines

[2] = target: T1, BceF kinase domain; experiment: microscale thermophoresis, NT-647 labelled protein; type: binding
[3] = target: the molecule itself; experiment: SEC-MALS; Superdex 75 10/300 column, miniDAWN TREOS and Optilab T-rEX; SEC analysis at pH 7.5; single species of 59.1 kDa against a calculated monomer of 29.4 kDa

## Nc1ncnc2c1ncn2[C@@H]1O[C@H](COP(=O)(O)OP(=O)(O)O)[C@@H](O)[C@H]1O [ADP]
[1]
  X-ray crystal structure, 1.85 Å: The structure revealed an adenosine diphosphate (ADP) molecule bound at the active site

## Nc1ncnc2c1ncn2[C@@H]1O[C@H](COP(=O)(O)OP(=O)(O)NP(=O)(O)O)[C@@H](O)[C@H]1O [AMP-PNP]
[2]
  Kd: 1640 ± 220 µM

B1: BceF kinase domain (residues 471-741) from Burkholderia cepacia (domain or fragment)
chain: RRNMFQGIEDPDRIERAFNLPLYGLVPQSAEQVKLDAQAEKSGSRTRPILASLRPKDLSVESLRSLRTAMQFAMMDAKNRVIVLTGPTPGIGKSFLTVNLAVLLAHSGKRVLLIDADMRRGLLDRYFGLTSQPGLSELLSDQSALEDAVRETPVQGLSFISAGTRPPNPSELLMSTRLPQYLEGLGKRYDVVLIDSPPVLAVTDATIIGRMAGSTFLVLRSGMHTEGEIADAIKRLRTAGVDLEGGIFNGVPPKARGYGRGYAAVHEYLSA
modifications: partly phosphotyrosine in the C-terminal tail 725-741 (MS/MS: 28% non-phosphorylated, 68% monophosphorylated mostly at the third tyrosine, position 14 of the peptide)
notes: His6 tag and TEV site at the N-terminus; cleaved with TEV in the preparation for crystallisation; also called isolated BceF kinase domain; BceF tyrosine kinase domain; source: E. coli BL21(DE3), purified (HisTrap, TEV cleavage, second HisTrap, SEC Superdex 200); not shown: His6, N-terminal, cleaved
[3]
  stoichiometry N: 2
